# In PubChem BioAssay (NCI):
#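 Five compound concentrations were applied to cells in 96-well plates for 48 hours; endpoints were derived by simple linear interpolation of the resulting dose-response curve. TGI marks complete inhibition of growth.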
# Key:
# Experiment in all cases: NCI tumour cell line growth inhibition, 48 h
# HOP-18 NSCLC = tested on: HOP-18 NSCLC
# DMS 114 small cell lung = tested on: DMS 114 small cell lung
# XF 498 CNS = tested on: XF 498 CNS
# M19-MEL melanoma = tested on: M19-MEL melanoma
# NCI-H522 lung = tested on: NCI-H522 lung
# OVCAR-4 ovarian = tested on: OVCAR-4 ovarian
# SNB-78 CNS = tested on: SNB-78 CNS
# SK-MEL-28 melanoma = tested on: SK-MEL-28 melanoma
# LOX IMVI melanoma = tested on: LOX IMVI melanoma
# SF-295 CNS = tested on: SF-295 CNS
# OVCAR-3 ovarian = tested on: OVCAR-3 ovarian
# OVCAR-5 ovarian = tested on: OVCAR-5 ovarian
# SK-MEL-2 melanoma = tested on: SK-MEL-2 melanoma
# NCI-H23 lung = tested on: NCI-H23 lung
# M14 melanoma = tested on: M14 melanoma
# K-562 leukemia = tested on: K-562 leukemia
# HCT-15 colon = tested on: HCT-15 colon
# SN12C renal = tested on: SN12C renal
# MALME-3M melanoma = tested on: MALME-3M melanoma
# U251 CNS = tested on: U251 CNS
# TK-10 renal = tested on: TK-10 renal
# RXF-631 renal = tested on: RXF-631 renal
# KM12 colon = tested on: KM12 colon
# HL-60(TB) leukemia = tested on: HL-60(TB) leukemia
# A549 NSCLC = tested on: A549 NSCLC
# NCI-H460 lung = tested on: NCI-H460 lung
# COLO 205 colon = tested on: COLO 205 colon
# SNB-19 CNS = tested on: SNB-19 CNS
# SNB-75 CNS = tested on: SNB-75 CNS
# MOLT-4 leukemia = tested on: MOLT-4 leukemia
# SK-MEL-5 melanoma = tested on: SK-MEL-5 melanoma
# SR leukemia = tested on: SR leukemia
# HOP-92 NSCLC = tested on: HOP-92 NSCLC
# NCI-H226 lung = tested on: NCI-H226 lung
# SF-539 CNS = tested on: SF-539 CNS
# KM20L2 colon = tested on: KM20L2 colon
# ACHN renal = tested on: ACHN renal
# UACC-257 melanoma = tested on: UACC-257 melanoma
# RXF 393 renal = tested on: RXF 393 renal
# LXFL 529 NSCLC = tested on: LXFL 529 NSCLC
# UO-31 renal = tested on: UO-31 renal
# UACC-62 melanoma = tested on: UACC-62 melanoma
# SK-OV-3 ovarian = tested on: SK-OV-3 ovarian
# CCRF-CEM leukemia = tested on: CCRF-CEM leukemia
# DLD-1 colon = tested on: DLD-1 colon
# 786-0 renal = tested on: 786-0 renal
# HCT-116 colon = tested on: HCT-116 colon
# DMS 273 small cell lung = tested on: DMS 273 small cell lung
# OVCAR-8 ovarian = tested on: OVCAR-8 ovarian
# HOP-62 NSCLC = tested on: HOP-62 NSCLC
# SF-268 CNS = tested on: SF-268 CNS
# A498 renal = tested on: A498 renal
# HT29 colon = tested on: HT29 colon
# EKVX NSCLC = tested on: EKVX NSCLC
# SW-620 colon = tested on: SW-620 colon
# HCC-2998 colon = tested on: HCC-2998 colon
# CAKI-1 renal = tested on: CAKI-1 renal
# IGROV1 ovarian = tested on: IGROV1 ovarian
# NCI/ADR-RES ovarian = tested on: NCI/ADR-RES ovarian
# RPMI-8226 leukemia = tested on: RPMI-8226 leukemia
# SN12K1 renal = tested on: SN12K1 renal
# P388 leukemia = tested on: P388 leukemia
# MCF7 breast = tested on: MCF7 breast
# P388/ADR leukemia = tested on: P388/ADR leukemia
smiles,measurement,setting,value
CCSC1=CC(Cc2ccc(OC)cc2)N(C(=O)OC)C1 (stereo not drawn),TGI,HOP-18 NSCLC,> 100 µM
same,TGI,DMS 114 small cell lung,73.7 µM
same,TGI,XF 498 CNS,> 100 µM
same,TGI,M19-MEL melanoma,> 100 µM
same,TGI,NCI-H522 lung,> 100 µM
same,TGI,OVCAR-4 ovarian,> 100 µM
same,TGI,SNB-78 CNS,> 100 µM
same,TGI,SK-MEL-28 melanoma,> 100 µM
same,TGI,LOX IMVI melanoma,> 100 µM
same,TGI,SF-295 CNS,> 100 µM
same,TGI,OVCAR-3 ovarian,> 100 µM
same,TGI,OVCAR-5 ovarian,> 100 µM
same,TGI,SK-MEL-2 melanoma,> 100 µM
same,TGI,NCI-H23 lung,> 100 µM
same,TGI,M14 melanoma,> 100 µM
same,TGI,K-562 leukemia,> 100 µM
same,TGI,HCT-15 colon,> 100 µM
same,TGI,SN12C renal,> 100 µM
same,TGI,MALME-3M melanoma,> 100 µM
same,TGI,U251 CNS,> 100 µM
same,TGI,TK-10 renal,> 100 µM
same,TGI,RXF-631 renal,> 100 µM
same,TGI,KM12 colon,> 100 µM
same,TGI,HL-60(TB) leukemia,60.1 µM
same,TGI,A549 NSCLC,> 100 µM
same,TGI,NCI-H460 lung,> 100 µM
same,TGI,COLO 205 colon,> 100 µM
same,TGI,SNB-19 CNS,> 100 µM
same,TGI,SNB-75 CNS,> 100 µM
same,TGI,MOLT-4 leukemia,> 100 µM
same,TGI,SK-MEL-5 melanoma,> 100 µM
same,TGI,SR leukemia,> 100 µM
same,TGI,HOP-92 NSCLC,> 100 µM
same,TGI,NCI-H226 lung,> 100 µM
same,TGI,SF-539 CNS,> 100 µM
same,TGI,KM20L2 colon,> 100 µM
same,TGI,ACHN renal,> 100 µM
same,TGI,UACC-257 melanoma,> 100 µM
same,TGI,RXF 393 renal,> 100 µM
same,TGI,LXFL 529 NSCLC,> 100 µM
same,TGI,UO-31 renal,> 100 µM
same,TGI,UACC-62 melanoma,> 100 µM
same,TGI,SK-OV-3 ovarian,> 100 µM
same,TGI,CCRF-CEM leukemia,> 100 µM
same,TGI,DLD-1 colon,> 100 µM
same,TGI,786-0 renal,> 100 µM
same,TGI,HCT-116 colon,> 100 µM
same,TGI,DMS 273 small cell lung,> 100 µM
same,TGI,OVCAR-8 ovarian,> 100 µM
same,TGI,HOP-62 NSCLC,> 100 µM
same,TGI,SF-268 CNS,> 100 µM
same,TGI,A498 renal,> 100 µM
same,TGI,HT29 colon,> 100 µM
same,TGI,EKVX NSCLC,> 100 µM
same,TGI,SW-620 colon,> 100 µM
same,TGI,HCC-2998 colon,> 100 µM
same,TGI,CAKI-1 renal,> 100 µM
same,TGI,IGROV1 ovarian,> 100 µM
CCCCC1(C2c3ccccc3Oc3ccccc32)C(=O)N(c2ccccc2)N(c2ccccc2)C1=O,TGI,NCI/ADR-RES ovarian,> 100 µM
same,TGI,HOP-18 NSCLC,> 100 µM
same,TGI,XF 498 CNS,> 100 µM
same,TGI,M19-MEL melanoma,> 100 µM
same,TGI,NCI-H522 lung,13.1 µM
same,TGI,OVCAR-4 ovarian,> 100 µM
same,TGI,SNB-78 CNS,> 88.5 µM
same,TGI,SK-MEL-28 melanoma,> 100 µM
same,TGI,LOX IMVI melanoma,> 100 µM
same,TGI,SF-295 CNS,> 100 µM
same,TGI,RPMI-8226 leukemia,> 100 µM
same,TGI,OVCAR-3 ovarian,> 100 µM
same,TGI,OVCAR-5 ovarian,> 100 µM
same,TGI,SN12K1 renal,> 100 µM
same,TGI,SK-MEL-2 melanoma,> 100 µM
same,TGI,NCI-H23 lung,> 100 µM
same,TGI,K-562 leukemia,> 100 µM
same,TGI,HCT-15 colon,> 100 µM
same,TGI,SN12C renal,> 100 µM
same,TGI,MALME-3M melanoma,> 100 µM
same,TGI,U251 CNS,> 100 µM
same,TGI,KM12 colon,> 100 µM
same,TGI,HL-60(TB) leukemia,> 100 µM
same,TGI,A549 NSCLC,> 100 µM
same,TGI,NCI-H460 lung,> 100 µM
same,TGI,COLO 205 colon,> 100 µM
same,TGI,SNB-19 CNS,> 100 µM
same,TGI,SNB-75 CNS,> 100 µM
same,TGI,SK-MEL-5 melanoma,> 100 µM
same,TGI,HOP-92 NSCLC,> 100 µM
same,TGI,NCI-H226 lung,> 100 µM
same,TGI,SF-539 CNS,> 100 µM
same,TGI,KM20L2 colon,> 100 µM
same,TGI,UACC-257 melanoma,99 µM
same,TGI,RXF 393 renal,> 100 µM
same,TGI,P388 leukemia,45.2 µM
same,TGI,UO-31 renal,> 100 µM
same,TGI,UACC-62 melanoma,> 100 µM
same,TGI,SK-OV-3 ovarian,> 100 µM
same,TGI,CCRF-CEM leukemia,> 100 µM
same,TGI,DLD-1 colon,> 100 µM
same,TGI,HCT-116 colon,> 100 µM
same,TGI,MCF7 breast,> 100 µM
same,TGI,DMS 273 small cell lung,> 100 µM
same,TGI,P388/ADR leukemia,> 100 µM
same,TGI,OVCAR-8 ovarian,> 100 µM
same,TGI,HOP-62 NSCLC,> 100 µM
same,TGI,SF-268 CNS,> 100 µM
same,TGI,A498 renal,> 100 µM
same,TGI,HT29 colon,> 100 µM
same,TGI,EKVX NSCLC,> 100 µM
same,TGI,SW-620 colon,> 100 µM
same,TGI,HCC-2998 colon,> 94.5 µM
same,TGI,CAKI-1 renal,> 29.6 µM
same,TGI,IGROV1 ovarian,> 100 µM
